Reference: PMC4829348 (Journal of medicinal chemistry, 2016)

Test system: A/WSN/33 virus (M2-S31N)
Format: cell-based, influenza A virus
Settings: not given

Compound | decrease of plaque number
c1c(CNC23CC4CC(CC(C4)C2)C3)noc1C1CC1 [14c] | more than 50%
c1c(CNC23CC4CC(CC(C4)C2)C3)noc1C1CCC1 [14d] | more than 50%

Same assay, conditions: read-out: Plaque Reduction EC50

Compound | EC50
OC1C2CC3CC1CC(NCc1cc(-c4cccs4)on1)(C3)C2 (centres unmarked) [30b] | < 1000 nM
OC12CC3CC(C1)CC(NCc1cc(-c4cccs4)on1)(C3)C2 [compound 30f] | < 1000 nM

Molecular target: T1, S31N mutant of the A/M2 protein (Influenza A virus, UniProt P0DOF5, S31N)
Format: biochemical
Settings: not given

Compound | % S31N inhibition
CCCc1cc(CNC23CC4CC(CC(C4)C2)C3)no1 [14b] | 81/49%
c1c(CNC23CC4CC(CC(C4)C2)C3)noc1C1CCC1 [14d] | 84/N.T. %
COCc1cc(CNC23CC4CC(CC(C4)C2)C3)no1 [14e] | 39/N.T. %
CC(C)c1cc(CNC23CC4CC(CC(C4)C2)C3)no1 [14f] | 80/55%
CSC(C)(C)Cc1cc(CNC23CC4CC(CC(C4)C2)C3)no1 [14g] | 70/N.T. %
c1cc(-c2cc(CNC34CC5CC(CC(C5)C3)C4)no2)cs1 [14i] | 90/N.T. %
c1coc(-c2cc(CNC34CC5CC(CC(C5)C3)C4)no2)c1 [14j] | 84/N.T. %
COc1ccsc1-c1cc(CNC23CC4CC(CC(C4)C2)C3)no1 [14k] | 90/87%
Clc1ccccc1-c1cc(CNC23CC4CC(CC(C4)C2)C3)no1 [14m] | 87/65%
Brc1ccccc1-c1cc(CNC23CC4CC(CC(C4)C2)C3)no1 [14n] | 77/N.T. %
Fc1cc(F)cc(-c2cc(CNC34CC5CC(CC(C5)C3)C4)no2)c1 [14o] | 78/N.T. %
Fc1cccc(F)c1-c1cc(CNC23CC4CC(CC(C4)C2)C3)no1 [14p] | 85/68%
COc1cccc(-c2cc(CNC34CC5CC(CC(C5)C3)C4)no2)c1 [14r] | 87/73%
CSc1ccccc1-c1cc(CNC23CC4CC(CC(C4)C2)C3)no1 [14s] | 79/N.T. %
CCCc1nc(CNC23CC4CC(CC(C4)C2)C3)no1 [18b] | 77/19%
CC(C)Cc1nc(CNC23CC4CC(CC(C4)C2)C3)no1 [18e] | 62/N.T. %
c1cc(-c2nc(CNC34CC5CC(CC(C5)C3)C4)no2)cs1 [18g] | 81/N.T. %
c1coc(-c2nc(CNC34CC5CC(CC(C5)C3)C4)no2)c1 [18h] | 73/N.T. %
COc1ccc(-c2noc(CNC34CC5CC(CC(C5)C3)C4)n2)cc1OC [20a] | 39/N.T. %

Compound | % S31N inhibition
COc1ccccc1-c1noc(CNC23CC4CC(CC(C4)C2)C3)n1 [20b] | 58/N.T. %
c1c(C2CCCCC2)noc1CNC12CC3CC(CC(C3)C1)C2 [20c] | 67/N.T. %
c1csc(-c2nnc(CNC34CC5CC(CC(C5)C3)C4)o2)c1 [26a] | 52/N.T. %
c1csc(-c2nnc(CNC34CC5CC(CC(C5)C3)C4)s2)c1 [26b] | 83/N.T. %
c1ccc(-c2nnc(CNC34CC5CC(CC(C5)C3)C4)o2)cc1 [26c] | 61/N.T. %
COc1ccc(-c2nnc(CNC34CC5CC(CC(C5)C3)C4)o2)cc1 [26d] | 58/N.T. %
c1csc(-c2ncc(CNC34CC5CC(CC(C5)C3)C4)s2)c1 [26e] | 75/N.T. %
c1csc(-c2nc(CNC34CC5CC(CC(C5)C3)C4)cs2)c1 [26h] | 37/N.T. %
c1ccc(-c2nc(CNC34CC5CC(CC(C5)C3)C4)cs2)cc1 [26i] | 24/N.T. %
O=C1C2CC3CC1CC(NCc1cc(-c4cccs4)on1)(C3)C2 [30a] | 78/N.T. %
OC1C2CC3CC1CC(NCc1cc(-c4cccs4)on1)(C3)C2 (centres unmarked) [30b] | 91/56%
CC1(O)C2CC3CC1CC(NCc1cc(-c4cccs4)on1)(C3)C2 (centres unmarked) [30c] | 87/48%
c1csc(-c2cc(CNC34CC5CC(C3)C3(CO3)C(C5)C4)no2)c1 (centres unmarked) [30d] | 61/N.T. %
c1csc(-c2cc(CNC34CC5COC(CC(C5)C3)C4)no2)c1 (centres unmarked) [30e] | 72/N.T. %
NC12CC3CC(CC(C3)C1)C2 [AMT (1), amantadine, reference compound] | 36%
Oc1ccc(NC23CC4CC(CC(C4)C2)C3)c(O)c1 [compound 5] | 67%
COc1ccc(-c2cc(CNC34CC5CC(CC(C5)C3)C4)no2)c(OC)c1 [compound 14t] | 62/N.T. %
COc1ccc(-c2nc(CNC34CC5CC(CC(C5)C3)C4)no2)c(OC)c1 [compound 18m] | 82/N.T. %
OC12CC3CC(O)(C1)CC(NCc1cc(-c4cccs4)on1)(C3)C2 [compound 30h] | 88/45%

Molecular target: T1, S31N mutant of the A/M2 protein
Settings: 100 µM drug; percent inhibition in TEVC assays was previously reported; cited from earlier work

Compound | % S31N inhibition
Cc1cc(CNC23CC4CC(CC(C4)C2)C3)no1 [14a] | 49/N.T. %
c1ccc(-c2cc(CNC34CC5CC(CC(C5)C3)C4)no2)cc1 [14l] | 91/N.T. %
COc1ccc(-c2cc(CNC34CC5CC(CC(C5)C3)C4)no2)cc1 [14q] | 87/N.T. %
Cc1nc(CNC23CC4CC(CC(C4)C2)C3)no1 [18a] | 60/N.T. %
CC(C)c1nc(CNC23CC4CC(CC(C4)C2)C3)no1 [18d] | 70/N.T. %
c1csc(-c2nc(CNC34CC5CC(CC(C5)C3)C4)no2)c1 [18f] | 83/N.T. %
c1ccc(-c2nc(CNC34CC5CC(CC(C5)C3)C4)no2)cc1 [18i] | 75/N.T. %
COc1ccc(-c2nc(CNC34CC5CC(CC(C5)C3)C4)no2)cc1 [18k] | 86/N.T. %
